Source: ChEMBL document CHEMBL1201862, “PubChem BioAssay data set” (2004)
Values joined by “and” are separate entries in the source; they are usually repeats but may differ in a detail not shown here. Equal values may be shown once. One block for each compound: values may come before it. Active and inactive are the calls of the source.

What was measured:
Format in all cases: functional
[1] = biological target: DNA dC->dU-editing enzyme APOBEC-3G (Homo sapiens, UniProt Q9HC16); test: APOBEC3G deaminase inhibitors, SAR follow-up, biochemical, fluorescence, single-stranded DNA substrate (AID 602136); details: read-out: IC50_Mean
[2] = biological target: DNA dC->dU-editing enzyme APOBEC-3A (Homo sapiens, UniProt P31941); test: SAR analysis of small molecule inhibitors of APOBEC3A DNA Deaminase via a fluorescence-based single-stranded DNA deaminase assay.; details: read-out: IC50_Mean
[3] = biological target: T1, Apoptotic protease-activating factor 1 (Homo sapiens, UniProt O14727); test: SAR analysis of small molecule Activators of Apaf-1 in a Fluorescent assay.; details: read-out: EC50_Mean
T1 sequence (O14727 whole entry): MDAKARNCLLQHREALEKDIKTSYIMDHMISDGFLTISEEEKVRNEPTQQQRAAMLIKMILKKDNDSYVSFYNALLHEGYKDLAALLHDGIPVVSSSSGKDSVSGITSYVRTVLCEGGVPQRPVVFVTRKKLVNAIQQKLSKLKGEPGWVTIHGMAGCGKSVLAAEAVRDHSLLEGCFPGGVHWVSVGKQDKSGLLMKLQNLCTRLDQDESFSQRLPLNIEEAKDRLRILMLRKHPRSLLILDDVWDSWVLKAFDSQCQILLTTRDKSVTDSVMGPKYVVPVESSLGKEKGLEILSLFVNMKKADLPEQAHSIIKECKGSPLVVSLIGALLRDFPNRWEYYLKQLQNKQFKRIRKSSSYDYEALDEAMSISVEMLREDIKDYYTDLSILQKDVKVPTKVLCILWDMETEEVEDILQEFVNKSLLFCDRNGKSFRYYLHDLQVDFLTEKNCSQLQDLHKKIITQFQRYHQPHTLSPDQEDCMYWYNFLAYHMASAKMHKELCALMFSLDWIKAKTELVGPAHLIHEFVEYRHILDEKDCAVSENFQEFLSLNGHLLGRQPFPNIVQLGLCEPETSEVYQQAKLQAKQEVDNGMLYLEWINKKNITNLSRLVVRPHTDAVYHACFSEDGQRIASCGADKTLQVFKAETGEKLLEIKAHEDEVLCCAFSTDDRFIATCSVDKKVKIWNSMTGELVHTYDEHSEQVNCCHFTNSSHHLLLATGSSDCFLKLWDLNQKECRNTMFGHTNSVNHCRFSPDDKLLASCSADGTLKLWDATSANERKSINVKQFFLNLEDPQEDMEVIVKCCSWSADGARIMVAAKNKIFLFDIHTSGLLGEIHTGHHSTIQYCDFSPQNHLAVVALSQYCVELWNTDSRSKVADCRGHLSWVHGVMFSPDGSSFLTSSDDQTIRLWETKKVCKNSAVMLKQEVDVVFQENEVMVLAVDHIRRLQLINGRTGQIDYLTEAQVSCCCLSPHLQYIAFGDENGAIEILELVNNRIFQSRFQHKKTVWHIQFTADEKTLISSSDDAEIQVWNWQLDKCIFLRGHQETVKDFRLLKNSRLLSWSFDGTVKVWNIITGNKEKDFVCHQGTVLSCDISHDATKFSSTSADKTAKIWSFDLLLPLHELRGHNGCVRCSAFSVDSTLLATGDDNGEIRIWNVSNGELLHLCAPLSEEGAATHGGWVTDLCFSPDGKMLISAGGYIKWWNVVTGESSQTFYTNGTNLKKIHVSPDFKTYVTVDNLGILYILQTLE

[4] = SAR analysis of small molecule activators of Apaf-1 using a LZ-Caspase-9/Caspase-3 Fluorescent Selectivity assay - Set 2.; details: read-out: EC50_Mean
[5] = biological target: T1, Apoptotic protease-activating factor 1; test: SAR analysis of small molecule Activators of Apaf-1 in a Fluorescent assay - set 2.; details: read-out: EC50_Mean
[6] = biological target: G protein-coupled receptor kinase 5 (Homo sapiens, UniProt P34947); test: Navigating the Kinome. Panel member name: GPRK5
[7] = biological target: Casein kinase I isoform alpha (Homo sapiens, UniProt P48729)
[8] = biological target: Mitogen-activated protein kinase kinase kinase kinase 2 (Homo sapiens, UniProt Q12851);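 note: measured as one member of a kinome-wide kinase panel, with MAP4K2 as the panel entry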
[9] = biological target: Cell division cycle 7-related protein kinase (Homo sapiens, UniProt O00311);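 note: value obtained from a kinome-wide kinase panel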
[10] = biological target: Tyrosine-protein kinase Blk (Homo sapiens, UniProt P51451);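 note: obtained as one member of a kinome-wide kinase assay panel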
[11] = biological target: Mast/stem cell growth factor receptor Kit (Homo sapiens, UniProt P10721);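 note: KIT entry within a kinase panel assay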
[12] = biological target: Mitogen-activated protein kinase kinase kinase kinase 5 (Homo sapiens, UniProt Q9Y4K4);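 note: measured as one member of a kinome-spanning kinase panel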
[13] = biological target: Mitogen-activated protein kinase 13 (Homo sapiens, UniProt O15264)
[14] = biological target: Interleukin-1 receptor-associated kinase 4 (Homo sapiens, UniProt Q9NWZ3)
[15] = biological target: Glycogen synthase kinase-3 beta (Homo sapiens, UniProt P49841);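 note: value comes from a broad kinome profiling panel, with GSK3B as the panel member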
[16] = biological target: Homeodomain-interacting protein kinase 2 (Homo sapiens, UniProt Q9H2X6);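 note: measured within a kinome-wide kinase profiling panel, HIPK2 being one panel member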
[17] = biological target: MAP kinase-interacting serine/threonine-protein kinase 2 (Homo sapiens, UniProt Q9HBH9)
[18] = biological target: cAMP-dependent protein kinase catalytic subunit alpha (Homo sapiens, UniProt P17612)
[19] = biological target: Cyclin-dependent kinase 7 (Homo sapiens, UniProt P50613);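 note: value comes from a kinome-wide kinase profiling panel in which CDK7 is one member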
[20] = biological target: Mitogen-activated protein kinase kinase kinase kinase 4 (Homo sapiens, UniProt O95819)
[21] = biological target: Serine/threonine-protein kinase pim-1 (Homo sapiens, UniProt P11309)
[22] = biological target: Dual specificity protein kinase CLK4 (Homo sapiens, UniProt Q9HAZ1)
[23] = biological target: Cyclin-dependent kinase 9 (Homo sapiens, UniProt P50750);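 note: value from the CDK9 entry of a kinome-spanning kinase panel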
Cyclin-dependent kinase 9, sequence (P50750 whole entry): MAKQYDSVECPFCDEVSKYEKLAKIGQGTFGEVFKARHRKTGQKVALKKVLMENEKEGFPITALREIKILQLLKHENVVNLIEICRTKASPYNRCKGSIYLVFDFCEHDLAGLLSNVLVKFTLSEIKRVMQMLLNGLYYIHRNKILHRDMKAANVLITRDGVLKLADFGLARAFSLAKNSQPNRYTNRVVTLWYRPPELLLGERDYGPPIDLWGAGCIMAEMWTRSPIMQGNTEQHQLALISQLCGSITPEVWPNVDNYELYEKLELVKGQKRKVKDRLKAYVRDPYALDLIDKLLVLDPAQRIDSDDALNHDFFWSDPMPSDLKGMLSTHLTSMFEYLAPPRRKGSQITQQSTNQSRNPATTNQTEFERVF

Cell division cycle 7-related protein kinase, sequence (O00311 whole entry): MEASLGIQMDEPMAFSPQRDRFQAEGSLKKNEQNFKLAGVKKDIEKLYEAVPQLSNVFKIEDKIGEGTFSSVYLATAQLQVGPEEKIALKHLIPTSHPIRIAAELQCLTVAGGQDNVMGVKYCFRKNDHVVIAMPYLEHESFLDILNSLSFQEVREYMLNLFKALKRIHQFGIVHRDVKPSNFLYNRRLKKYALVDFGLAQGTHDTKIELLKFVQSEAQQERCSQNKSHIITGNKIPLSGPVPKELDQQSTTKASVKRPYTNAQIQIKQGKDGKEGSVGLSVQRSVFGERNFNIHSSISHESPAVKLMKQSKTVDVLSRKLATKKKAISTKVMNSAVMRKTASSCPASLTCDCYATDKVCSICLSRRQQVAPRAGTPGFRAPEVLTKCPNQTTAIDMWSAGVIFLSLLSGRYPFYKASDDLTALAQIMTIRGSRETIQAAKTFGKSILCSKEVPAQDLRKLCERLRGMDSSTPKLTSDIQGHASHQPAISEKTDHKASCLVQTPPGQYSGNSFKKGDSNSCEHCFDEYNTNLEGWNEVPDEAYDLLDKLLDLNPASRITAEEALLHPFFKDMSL
Glycogen synthase kinase-3 beta, sequence (P49841 whole entry): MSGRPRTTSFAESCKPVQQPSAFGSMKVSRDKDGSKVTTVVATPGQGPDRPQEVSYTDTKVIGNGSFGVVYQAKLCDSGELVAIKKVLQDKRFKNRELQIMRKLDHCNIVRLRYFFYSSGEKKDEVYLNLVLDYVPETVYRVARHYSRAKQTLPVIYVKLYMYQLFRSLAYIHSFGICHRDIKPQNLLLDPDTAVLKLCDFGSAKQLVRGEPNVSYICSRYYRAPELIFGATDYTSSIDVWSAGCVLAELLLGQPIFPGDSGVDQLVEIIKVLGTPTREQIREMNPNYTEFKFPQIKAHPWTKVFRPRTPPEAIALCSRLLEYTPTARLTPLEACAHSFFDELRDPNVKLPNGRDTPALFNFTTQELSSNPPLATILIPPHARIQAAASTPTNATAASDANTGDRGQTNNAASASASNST
Interleukin-1 receptor-associated kinase 4, sequence (Q9NWZ3 whole entry): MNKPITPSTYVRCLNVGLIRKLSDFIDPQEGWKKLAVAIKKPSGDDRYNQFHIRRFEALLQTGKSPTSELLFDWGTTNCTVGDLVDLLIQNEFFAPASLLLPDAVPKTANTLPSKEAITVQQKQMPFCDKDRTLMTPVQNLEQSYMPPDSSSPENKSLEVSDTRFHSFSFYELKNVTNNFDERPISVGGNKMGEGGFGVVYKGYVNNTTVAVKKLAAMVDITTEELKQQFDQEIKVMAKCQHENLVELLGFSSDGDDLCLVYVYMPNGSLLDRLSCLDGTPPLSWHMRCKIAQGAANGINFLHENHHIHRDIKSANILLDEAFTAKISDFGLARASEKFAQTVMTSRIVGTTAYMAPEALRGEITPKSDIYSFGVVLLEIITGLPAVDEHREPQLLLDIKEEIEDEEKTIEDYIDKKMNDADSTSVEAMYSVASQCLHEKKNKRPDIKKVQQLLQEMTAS
Mitogen-activated protein kinase 13, sequence (O15264 whole entry): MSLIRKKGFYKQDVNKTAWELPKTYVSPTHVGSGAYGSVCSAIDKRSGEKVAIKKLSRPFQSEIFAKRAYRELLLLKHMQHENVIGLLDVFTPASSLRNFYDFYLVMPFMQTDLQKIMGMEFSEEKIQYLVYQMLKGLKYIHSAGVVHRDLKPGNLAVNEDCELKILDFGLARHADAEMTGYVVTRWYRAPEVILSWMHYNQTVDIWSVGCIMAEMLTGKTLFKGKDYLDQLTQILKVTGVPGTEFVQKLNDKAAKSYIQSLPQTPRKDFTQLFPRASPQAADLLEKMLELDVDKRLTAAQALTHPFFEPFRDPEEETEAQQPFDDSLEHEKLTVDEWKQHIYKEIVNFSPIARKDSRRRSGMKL
MAP kinase-interacting serine/threonine-protein kinase 2, sequence (Q9HBH9 whole entry): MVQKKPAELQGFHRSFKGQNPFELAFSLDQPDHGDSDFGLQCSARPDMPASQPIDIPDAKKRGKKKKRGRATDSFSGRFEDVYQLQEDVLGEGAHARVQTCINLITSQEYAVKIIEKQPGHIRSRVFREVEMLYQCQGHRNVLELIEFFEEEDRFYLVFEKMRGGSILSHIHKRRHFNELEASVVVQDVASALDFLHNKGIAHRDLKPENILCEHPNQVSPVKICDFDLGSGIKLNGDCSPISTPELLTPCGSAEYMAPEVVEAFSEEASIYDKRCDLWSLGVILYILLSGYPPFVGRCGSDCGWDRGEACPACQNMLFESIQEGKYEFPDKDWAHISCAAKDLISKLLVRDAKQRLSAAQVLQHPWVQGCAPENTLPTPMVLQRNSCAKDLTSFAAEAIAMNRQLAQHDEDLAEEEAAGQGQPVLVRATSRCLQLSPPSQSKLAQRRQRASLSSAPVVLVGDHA
DNA dC->dU-editing enzyme APOBEC-3G, sequence (Q9HC16 whole entry): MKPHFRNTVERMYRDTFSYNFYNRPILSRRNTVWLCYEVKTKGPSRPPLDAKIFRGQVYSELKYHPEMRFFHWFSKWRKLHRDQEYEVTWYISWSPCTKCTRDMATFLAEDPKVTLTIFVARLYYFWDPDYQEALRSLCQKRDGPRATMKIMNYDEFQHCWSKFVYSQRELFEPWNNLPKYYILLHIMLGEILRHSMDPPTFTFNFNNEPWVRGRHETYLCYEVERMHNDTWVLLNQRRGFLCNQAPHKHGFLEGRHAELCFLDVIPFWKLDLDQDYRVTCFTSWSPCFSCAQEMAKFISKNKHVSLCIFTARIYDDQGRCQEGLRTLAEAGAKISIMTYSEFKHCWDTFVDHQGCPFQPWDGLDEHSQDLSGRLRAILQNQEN
Mitogen-activated protein kinase kinase kinase kinase 2, sequence (Q12851 whole entry): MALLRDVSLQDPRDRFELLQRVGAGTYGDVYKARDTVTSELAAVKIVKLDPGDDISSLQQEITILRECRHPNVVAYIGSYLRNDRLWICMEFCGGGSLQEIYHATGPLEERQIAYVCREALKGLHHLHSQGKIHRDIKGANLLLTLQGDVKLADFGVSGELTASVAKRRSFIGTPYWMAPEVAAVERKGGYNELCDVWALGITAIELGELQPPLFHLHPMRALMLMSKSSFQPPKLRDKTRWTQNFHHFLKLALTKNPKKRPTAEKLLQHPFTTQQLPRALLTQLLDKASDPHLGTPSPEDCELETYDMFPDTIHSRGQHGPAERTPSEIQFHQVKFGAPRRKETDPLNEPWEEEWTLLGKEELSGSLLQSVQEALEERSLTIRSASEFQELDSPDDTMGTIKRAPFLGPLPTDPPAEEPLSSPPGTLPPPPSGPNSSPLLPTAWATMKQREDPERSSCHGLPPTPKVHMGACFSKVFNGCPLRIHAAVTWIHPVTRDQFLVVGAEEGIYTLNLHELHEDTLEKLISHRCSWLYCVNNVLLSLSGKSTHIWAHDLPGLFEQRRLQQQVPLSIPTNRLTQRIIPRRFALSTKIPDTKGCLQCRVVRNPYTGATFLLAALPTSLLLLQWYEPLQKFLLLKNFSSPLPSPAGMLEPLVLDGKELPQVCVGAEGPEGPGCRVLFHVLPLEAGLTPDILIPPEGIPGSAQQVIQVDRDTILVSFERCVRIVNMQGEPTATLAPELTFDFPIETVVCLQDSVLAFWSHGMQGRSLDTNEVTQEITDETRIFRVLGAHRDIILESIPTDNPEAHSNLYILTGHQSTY
Dual specificity protein kinase CLK4, sequence (Q9HAZ1 whole entry): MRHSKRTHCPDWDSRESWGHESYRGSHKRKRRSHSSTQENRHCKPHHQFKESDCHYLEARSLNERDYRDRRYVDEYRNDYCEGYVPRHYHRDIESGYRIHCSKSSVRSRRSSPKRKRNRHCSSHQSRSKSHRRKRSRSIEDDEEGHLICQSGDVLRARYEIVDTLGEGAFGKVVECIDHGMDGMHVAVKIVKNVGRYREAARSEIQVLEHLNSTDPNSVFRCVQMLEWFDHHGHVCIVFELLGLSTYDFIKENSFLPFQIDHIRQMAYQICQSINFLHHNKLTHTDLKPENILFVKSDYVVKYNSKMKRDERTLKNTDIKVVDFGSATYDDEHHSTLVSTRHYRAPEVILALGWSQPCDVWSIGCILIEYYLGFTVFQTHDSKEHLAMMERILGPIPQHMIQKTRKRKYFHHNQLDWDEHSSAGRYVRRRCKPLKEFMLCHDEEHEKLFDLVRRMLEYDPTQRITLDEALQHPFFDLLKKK
Cyclin-dependent kinase 7, sequence (P50613 whole entry): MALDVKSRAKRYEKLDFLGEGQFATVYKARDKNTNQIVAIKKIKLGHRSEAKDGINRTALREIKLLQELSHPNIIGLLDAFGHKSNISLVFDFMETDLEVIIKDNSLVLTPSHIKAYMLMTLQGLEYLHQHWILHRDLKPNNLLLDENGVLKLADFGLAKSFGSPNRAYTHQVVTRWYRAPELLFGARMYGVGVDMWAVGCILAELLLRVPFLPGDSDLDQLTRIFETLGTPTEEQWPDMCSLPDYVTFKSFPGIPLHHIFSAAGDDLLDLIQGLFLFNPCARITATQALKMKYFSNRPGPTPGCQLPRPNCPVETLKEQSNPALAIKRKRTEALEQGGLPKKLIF
DNA dC->dU-editing enzyme APOBEC-3A, sequence (P31941 whole entry): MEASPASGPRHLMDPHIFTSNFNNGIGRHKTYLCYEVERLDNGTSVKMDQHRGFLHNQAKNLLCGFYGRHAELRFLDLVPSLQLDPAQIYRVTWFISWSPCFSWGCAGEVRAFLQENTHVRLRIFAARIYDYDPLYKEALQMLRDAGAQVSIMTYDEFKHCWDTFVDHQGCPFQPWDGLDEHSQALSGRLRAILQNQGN

- Ki [6]: 2510 nM (active)
- Ki [7]: 3160 nM (active)
Compound: NS(=O)(=O)OCC1CC(n2ccc3c(NC4CCc5ccccc54)ncnc32)CC1O (centres undefined)

- Ki [8]: 794 nM (active)
- Ki [9]: > 1260 nM (inactive)
- Ki [10]: 316 nM (active)
- Ki [11]: > 1260 nM (inactive)
- Ki [12]: 316 nM (active)
- Ki [13]: > 7940 nM (inactive)
Compound: CC1(O)CC(c2nc(-c3ccc4ccc(-c5ccccc5)nc4c3)c3c(N)nccn23)C1 (centres undefined)

- Ki [14]: 398 nM (active)
- Ki [15]: 1260 nM (active)
- Ki [16]: 2000 nM (active)
- Ki [17]: 126 nM (active)
- Ki [18]: 501 nM (active)
- Ki [19]: 200 nM (active)
- Ki [9]: 12.6 nM (active)
- Ki [20]: 100 nM (active)
- Ki [21]: 5010 nM (active)
- Ki [22]: 12.6 nM (active)
- Ki [23]: 100 nM (active)
Compound: CN(C)c1cc(-c2ccncc2)cc2[nH]nc(N)c12

The next lines start with the compound.

Compound: CCCn1c(=O)c2ccc(C(=O)NC(C)C)cc2n2c(=O)n(Cc3c(F)cccc3Cl)nc12
- IC50 [1]: > 99000 nM (inactive)
- IC50 [2]: > 99000 nM (inactive)

Compound: Cc1nn(CC(C)C(=O)O)c(C)c1Br (centres undefined)
- EC50 [3]: 5130 nM (active)
- EC50 [4]: > 100 µM (inactive) and > 99 µM (inactive)
- EC50 [5]: 4.75 µM (active) and 3.41 µM (active) and 12.7 µM (active)
